The source made the active and inactive calls.
How the values were obtained:
[1] = target: Serine/threonine-protein kinase 17B (Homo sapiens) (UniProt O94768); experiment: DRAK2(h) Millipore kinase panel; settings: Compound concentration 1.0 uM
[2] = target: Serine/threonine-protein kinase Nek11 (Homo sapiens) (UniProt Q8NG66); experiment: NEK11(h) Millipore kinase panel; settings: Compound concentration 1.0 uM
[3] = target: Ephrin type-B receptor 4 (Homo sapiens) (UniProt P54760); experiment: EphB4(h) Millipore kinase panel; settings: Compound concentration 1.0 uM
[4] = target: Dual specificity mitogen-activated protein kinase kinase 3 (Homo sapiens) (UniProt P46734); experiment: MKK3(h) Millipore kinase panel; settings: Compound concentration 1.0 uM
[5] = target: Interleukin-1 receptor-associated kinase 1 (Homo sapiens) (UniProt P51617); experiment: IRAK1(h) Millipore kinase panel; settings: Compound concentration 1.0 uM
[6] = target: SNF-related serine/threonine-protein kinase (Homo sapiens) (UniProt Q9NRH2); experiment: SNRK(h) Millipore kinase panel; settings: Compound concentration 1.0 uM
[7] = target: Macrophage-stimulating protein receptor (Homo sapiens) (UniProt Q04912); experiment: Ron(h) Millipore kinase panel; settings: Compound concentration 1.0 uM
[8] = target: Serine/threonine-protein kinase PAK 2 (Homo sapiens) (UniProt Q13177); experiment: PAK2(h) Millipore kinase panel; settings: Compound concentration 1.0 uM
[9] = target: Homeodomain-interacting protein kinase 4 (Homo sapiens) (UniProt Q8NE63); experiment: HIPK4(h) Millipore kinase panel; settings: Compound concentration 1.0 uM
[10] = target: Serine/threonine-protein kinase ICK (Homo sapiens) (UniProt Q9UPZ9); experiment: ICK(h) Millipore kinase panel; settings: Compound concentration 1.0 uM
[11] = target: Serine/threonine-protein kinase tousled-like 2 (Homo sapiens) (UniProt Q86UE8); experiment: TLK2(h) Millipore kinase panel; settings: Compound concentration 1.0 uM
[12] = target: Inhibitor of nuclear factor kappa-B kinase subunit beta (Homo sapiens) (UniProt O14920); experiment: IKKbeta(h) Millipore kinase panel; settings: Compound concentration 1.0 uM
[13] = target: Cyclin-dependent kinase-like 2 (Homo sapiens) (UniProt Q92772); experiment: CDKL2(h) Millipore kinase panel; settings: Compound concentration 1.0 uM
[14] = target: Serine/threonine-protein kinase N1 (Homo sapiens) (UniProt Q16512); experiment: PRK1(h) Millipore kinase panel; settings: Compound concentration 1.0 uM
[15] = target: Serine/threonine-protein kinase SBK1 (Homo sapiens) (UniProt Q52WX2); experiment: SBK1(h) Millipore kinase panel; settings: Compound concentration 1.0 uM
[16] = target: 5-hydroxytryptamine receptor 7 (Homo sapiens, UniProt P34969); experiment: GPCRScan assay: inhibition of 5-HT7A; design: radioligand conc. used [nm] 5.0 – 6.0, parental cells Stable HEK
[17] = target: G protein-coupled receptor kinase 3 (Homo sapiens) (UniProt P35626); experiment: GRK3(h) Millipore kinase panel; settings: Compound concentration 1.0 uM
[18] = target: Tyrosine-protein kinase Tec (Homo sapiens) (UniProt P42680); experiment: Tec(h) activated Millipore kinase panel; settings: Compound concentration 1.0 uM
[19] = target: 5-hydroxytryptamine receptor 1E (Homo sapiens) (UniProt P28566); settings: Compound concentration 10.0 uM
[20] = target: D(3) dopamine receptor (Homo sapiens) (UniProt P35462); settings: Compound concentration 10.0 uM
[21] = target: Serine/threonine-protein kinase 32C (Homo sapiens) (UniProt Q86UX6); experiment: STK32C(h) Millipore kinase panel; settings: Compound concentration 1.0 uM
[22] = target: 5-hydroxytryptamine receptor 5A (Homo sapiens) (UniProt P47898); settings: Compound concentration 10.0 uM
[23] = target: PI3-kinase p110-delta/p85-alpha (Homo sapiens) (UniProt P27986+O00329); experiment: PI3 Kinase (p110d/p85a)(h) Millipore kinase panel; format: protein-complex assay; settings: Compound concentration 1.0 uM
[24] = target: Insulin receptor-related protein (Homo sapiens) (UniProt P14616); experiment: IRR(h) Millipore kinase panel; settings: Compound concentration 1.0 uM
[25] = target: Serine/threonine-protein kinase 32A (Homo sapiens) (UniProt Q8WU08); experiment: STK32A(h) Millipore kinase panel; settings: Compound concentration 1.0 uM
[26] = target: Monoamine oxidase B (MAO-B) (Homo sapiens, UniProt P27338); experiment: Inhibition of Monoamine Oxidase MAO-B at compound concentration of 10.0 uM in the Eurofins-Panlabs enzyme assay (Eurofins_assay_140120); design: substrate with concentration 50 uM Kynuramine, incubation time 60 min, incubation temperature 37 C; settings: recombinant human MAO-B expressed in insect Hi5 cells, probe Kynuramine (50 uM), compound concentration 10 uM
[27] = target: Rhodopsin kinase GRK1 (Homo sapiens) (UniProt Q15835); experiment: GRK1(h) Millipore kinase panel; settings: Compound concentration 1.0 uM
Homo sapiens = species on record: Homo sapiens; experiment: CDK9/cyclinT1(h) Millipore kinase panel; settings: Compound concentration 1.0 uM
[28] = target: TGF-beta receptor type-2 (Homo sapiens) (UniProt P37173); experiment: TGFBR2(h) Millipore kinase panel; settings: Compound concentration 1.0 uM
[29] = target: Serine/threonine-protein kinase MAK (Homo sapiens) (UniProt P20794); experiment: MAK(h) Millipore kinase panel; settings: Compound concentration 1.0 uM
[30] = target: Cyclin-dependent kinase 5/CDK5 activator 1 (Homo sapiens) (UniProt Q00535+Q15078); experiment: CDK5/p35(h) Millipore kinase panel; format: protein-complex assay; settings: Compound concentration 1.0 uM
[31] = target: Activin receptor type-2A (Homo sapiens) (UniProt P27037); experiment: ACTR2(h) Millipore kinase panel; settings: Compound concentration 1.0 uM
[32] = target: Rho-associated protein kinase 1 (Homo sapiens) (UniProt Q13464); experiment: ROCK-I(h) Millipore kinase panel; settings: Compound concentration 1.0 uM
[33] = target: STE20-like serine/threonine-protein kinase (Homo sapiens) (UniProt Q9H2G2); experiment: SLK(h) Millipore kinase panel; settings: Compound concentration 1.0 uM
[34] = target: Serine/threonine-protein kinase VRK1 (Homo sapiens) (UniProt Q99986); experiment: VRK1(h) Millipore kinase panel; settings: Compound concentration 1.0 uM
[35] = target: Calcium/calmodulin-dependent protein kinase kinase 1 (Homo sapiens) (UniProt Q8N5S9); experiment: CaMKK1(h) Millipore kinase panel; settings: Compound concentration 1.0 uM
[36] = target: Platelet-derived growth factor receptor beta (Homo sapiens) (UniProt P09619); experiment: PDGFRbeta(h) Millipore kinase panel; settings: Compound concentration 1.0 uM
[37] = target: Serine/threonine-protein kinase N2 (Homo sapiens) (UniProt Q16513); experiment: PRK2(h) Millipore kinase panel; settings: Compound concentration 1.0 uM
[38] = target: Phosphorylase b kinase gamma catalytic chain, testis/liver isoform (Homo sapiens) (UniProt P15735); experiment: PhKgamma2(h) Millipore kinase panel; settings: Compound concentration 1.0 uM
[39] = target: Glycogen synthase kinase-3 beta (Homo sapiens) (UniProt P49841); experiment: GSK3beta(h) Millipore kinase panel; settings: Compound concentration 1.0 uM
[40] = target: Muscarinic acetylcholine receptor M3 (Homo sapiens) (UniProt P20309); settings: Compound concentration 10.0 uM
[41] = target: NT-3 growth factor receptor (Homo sapiens) (UniProt Q16288); experiment: TrkC(h) Millipore kinase panel; settings: Compound concentration 1.0 uM
[42] = target: Serine/threonine-protein kinase Nek4 (Homo sapiens) (UniProt P51957); experiment: NEK4(h) Millipore kinase panel; settings: Compound concentration 1.0 uM
[43] = target: PI3-kinase p110-alpha/p85-alpha (Homo sapiens) (UniProt P27986+P42336); experiment: PI3 Kinase (p110a/p85a)(h) Millipore kinase panel; format: protein-complex assay; settings: Compound concentration 1.0 uM
[44] = target: Serine/threonine-protein kinase BRSK2 (Homo sapiens) (UniProt Q8IWQ3); experiment: BrSK2(h) Millipore kinase panel; settings: Compound concentration 1.0 uM
[45] = target: Casein kinase II subunit alpha (Homo sapiens) (UniProt P68400); experiment: CK2(h) Millipore kinase panel; settings: Compound concentration 1.0 uM
[46] = target: Glutamate receptor ionotropic, kainate (Rattus norvegicus) (UniProt P22756+Q01812+P42260+P42264+Q63273); settings: Compound concentration 10.0 uM

CC[C@@H](Nc1c(C#N)c(-c2ccc(-c3cccc(C)c3F)cc2)nc2cnccc12)C(=O)O [BAY-091]
inactive: inhibition [1] 7.08% | inhibition [2] 7.12% | inhibition [3] 11.8% | inhibition [4] 12.8% | inhibition [5] -3.31% | inhibition [6] 10.3% | inhibition [7] 0.76% | inhibition [8] 24.9% | inhibition [9] 15.7% | inhibition [10] 14.8% | inhibition [11] 8.27% | inhibition [12] 2.85% | inhibition [13] 19.4% | inhibition [14] 5.64% | inhibition [15] 4.02% | inhibition [17] 8.23% | inhibition [18] 4.62% | inhibition [19] 17.2% | inhibition [20] 27% | inhibition [21] 5.49% | inhibition [22] 14.8% | inhibition [23] 30.9% | inhibition [24] 6.25% | inhibition [25] 16% | inhibition [27] 1.52% | inhibition (Homo sapiens) 11.8% | inhibition [28] 19.3% | inhibition [29] 9.23% | inhibition [30] -0.03% | inhibition [31] 1.17% | inhibition [32] -2.77% | inhibition [33] 19.7% | inhibition [34] 3.04% | inhibition [35] 5.03% | inhibition [36] 9.33% | inhibition [37] 5.02% | inhibition [38] -0.34% | inhibition [39] -0.05% | inhibition [40] -8.52% | inhibition [41] 14.8% | inhibition [42] 32.1% | inhibition [43] 11% | inhibition [44] 3.83% | inhibition [45] 4.66% | inhibition [46] -2%
active: inhibition at 60 min, 10 µM [26] 81%
< 5: pKi [16]
> 10 µM: Ki [16]
